Results reported in patent US20260272895A1, “METHODS AND KITS FOR DELIVERY OF COMPOUNDS INTO CELLS” (Yale University, priority 2023, published 2026).

Biological target: T1, SLCO1A2 (Homo sapiens, UniProt P46721)
T1 sequence (P46721 1-670): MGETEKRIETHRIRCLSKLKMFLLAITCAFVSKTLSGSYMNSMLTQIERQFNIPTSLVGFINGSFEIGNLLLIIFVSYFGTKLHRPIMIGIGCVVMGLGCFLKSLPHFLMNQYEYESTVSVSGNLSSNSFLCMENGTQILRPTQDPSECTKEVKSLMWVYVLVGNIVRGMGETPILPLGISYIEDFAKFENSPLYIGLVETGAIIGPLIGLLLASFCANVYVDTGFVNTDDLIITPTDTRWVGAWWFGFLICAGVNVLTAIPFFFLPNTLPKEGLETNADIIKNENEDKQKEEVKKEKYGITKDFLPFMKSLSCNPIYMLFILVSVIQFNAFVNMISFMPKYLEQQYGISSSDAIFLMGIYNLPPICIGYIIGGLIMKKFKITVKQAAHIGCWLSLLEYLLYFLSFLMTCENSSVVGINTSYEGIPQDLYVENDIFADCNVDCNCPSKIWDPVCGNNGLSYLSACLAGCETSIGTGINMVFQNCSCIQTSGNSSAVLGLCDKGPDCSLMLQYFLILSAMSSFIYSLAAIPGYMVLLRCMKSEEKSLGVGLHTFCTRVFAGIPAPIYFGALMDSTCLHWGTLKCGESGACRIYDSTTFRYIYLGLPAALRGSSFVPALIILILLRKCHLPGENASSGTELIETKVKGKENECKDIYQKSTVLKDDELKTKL
Experiment: Uptake by cells ectopically expressing SLCO1A2 (in utero electroporation or AAV8) in live mice
Format: in vivo, mouse
Set-up: P2A:EGFP (AAV8 construct only; EGFP is separated at P2A) (C, cleaved yes); FLAG (in utero electroporation plasmid only); host or cells: cortical neurons of live mice (AAV8 subarachnoid infusion or in utero electroporation)
Conditions: topical cortical administration (50 μM where stated)
Method: IUE is performed at E14 or E15 as previously done. Briefly, timed pregnant mice are anaesthetized with ketamine/xylazine. The abdominal region is shaved, sterilized and a 3 cm midline incision is made in the skin and abdominal muscle. The uterine horns are exposed, and the lateral ventricle of each embryo is pressure injected (Picospritzer II, General Valve) with plasmid DNA (~[…] volume per embryo) at a concentration of […] followed by electroporation with tweezertrodes (50 V, 4-50 ms pulses with I s pulse interval. BTX Harvard Apparatus). The embryos are placed back in the mother womb, and the muscle and skin are sutured. Electroporated pups are aged to postnatal day 30. Imaging is performed through a craniotomy over the transfected hemisphere following dye labeling.
The Adeno-associated virus (AAV) for expression of SLCO1A2 was custom-made (VectorBuilders). Briefly, The AAV8 virus carrying the pAAV-CAG>hSLCO1A2:P2A:EGFP construct was produced by cloning the hSLCO1A2 gene variant downstream of the CAG promoter in the pAAV8 expression vector. A P2A sequence was inserted to link the hSLCO1A2 gene with the EGFP coding sequence. The constructed vector was transfected into HEK293 cells, and the virus produced was harvested and ultra-purified for a final titer >10^13 GC/mL. AAV virus were injected into the mouse subarachnoid space using a previously described method. Briefly, mice were anesthetized with ketamine-xylazine. A skull window, approximately 1 mm in diameter, was created using a high-speed drill at coordinates 6 mm anteroposterior and 3 mm mediolateral from bregma. Subsequently, a 30-gauge needle was carefully used to lift a small piece of thinned skull, exposing the underlying dura. The stock solutions of AAV were diluted in fresh sterile phosphate-buffered saline (PBS) solution (1:20, v/v) at room temperature, then kept on ice and adjusted to a titer of 10^12 GC/mL. The AAV solutions were loaded into a Tygon tube, connected to a polypropylene tip with an outer diameter of 70 μm, which was further attached to a programmable syringe pump with a Hamilton syringe. […]

Compound	uptake by neurons ectopically expressing SLCO1A2	uptake by neurons ectopically expressing SLCO1A2 (listed as Colchicine-eEDITS)	uptake by neurons ectopically expressing SLCO1A2 (listed as Colchicine-eEDiTS)
O=S(=O)([O-])c1cc(S(=O)(=O)O)ccc1C1=c2cc3c4c(c2Oc2cc(Br)ccc21)CCC[N+]=4CCC3 [Compound 1, 2-(12-bromo-1,2,3,5,6,7-hexahydrochromeno[2,3-f]pyrido[3,2,1-ij]quinolin-4-ium-9-yl)-5-sulfobenzenesulfonate]	only those cells that express SLCO1A2 or SLCO1A4 (as evidenced by the GFP fluorescence (green)) take up compound 1	–	–
COc1cc2c(c(OC)c1OC)-c1ccc(OC)c(=O)cc1C(NS(=O)(=O)c1ccc(-c3c4ccc(N(C)C)cc4[o+]c4cc(N(C)C)ccc34)c(S(=O)(=O)[O-])c1)CC2 (stereo not drawn) [Compound 47, 2-(3,6-bis(dimethylamino)xanthylium-9-yl)-5-(N-(1,2,3,10-tetramethoxy-9-oxo-5,6,7,9-tetrahydrobenzo[a]heptalen-7-yl)sulfamoyl)benzenesulfonate]	–	robust uptake by cells expressing SLCO1A2	marked uptake
